Results reported in the NIST ThermoML archive (doi:10.1021/je060271a).

Conditions: Liquid, Vibrating tube method

CCCC(=O)OCC(COC(=O)CCC)(COC(=O)CCC)COC(=O)CCC [pentaerythritol tetrabutyrate]
Conditions	mass density [kg/m3]
343.14 K, 27001 kPa	1027.8
343.14 K, 27378 kPa	1028.1
343.14 K, 27722 kPa	1028.3
343.14 K, 28167 kPa	1028.7
343.14 K, 28200 kPa	1028.7
343.14 K, 28241 kPa	1028.7
343.14 K, 29595 kPa	1029.4
343.14 K, 29634 kPa	1029.5
343.14 K, 29666 kPa	1029.7
343.14 K, 29705 kPa	1029.5
343.14 K, 30226 kPa	1030
343.14 K, 30268 kPa	1029.9
343.14 K, 30303 kPa	1029.9
343.14 K, 30331 kPa	1030
343.14 K, 30366 kPa	1030.1
343.14 K, 30394 kPa	1030.1
343.14 K, 30429 kPa	1029.9
343.14 K, 30464 kPa	1030.1
343.14 K, 30785 kPa	1030.4
343.14 K, 30814 kPa	1030.4
343.14 K, 30849 kPa	1030.4
343.14 K, 30886 kPa	1030.3
343.14 K, 30916 kPa	1030.4
343.14 K, 32186 kPa	1031.3
343.14 K, 32224 kPa	1031.2
343.14 K, 32886 kPa	1031.6
343.14 K, 32998 kPa	1031.7
343.14 K, 33543 kPa	1032
343.14 K, 33577 kPa	1032.2
343.14 K, 33620 kPa	1032.2
343.14 K, 33664 kPa	1032.2
343.14 K, 33699 kPa	1032.2
343.14 K, 33741 kPa	1032.2
343.14 K, 33784 kPa	1032.2
343.14 K, 33820 kPa	1032.2
343.14 K, 33863 kPa	1032.3
343.14 K, 33907 kPa	1032.4
343.15 K, 454.1 kPa	1008.4
343.15 K, 473 kPa	1008.4
343.15 K, 494.2 kPa	1008.5
343.15 K, 517.1 kPa	1008.3
343.15 K, 5946.5 kPa	1012.7
343.15 K, 6013.6 kPa	1012.8
343.15 K, 6051.1 kPa	1012.8
343.15 K, 6081.9 kPa	1012.8
343.15 K, 7040 kPa	1013.6
343.15 K, 7078.5 kPa	1013.6
343.15 K, 7108.1 kPa	1013.7
343.15 K, 7140.9 kPa	1013.7
343.15 K, 8048.2 kPa	1014.3
343.15 K, 8412.3 kPa	1014.7
343.15 K, 8447.3 kPa	1014.8
343.15 K, 8482.2 kPa	1014.7
343.15 K, 8511.5 kPa	1014.7
343.15 K, 8547 kPa	1014.6
343.15 K, 8583.2 kPa	1014.8
343.15 K, 8618.9 kPa	1014.8
343.15 K, 8655.1 kPa	1014.9
343.15 K, 8686 kPa	1014.8
343.15 K, 8982.4 kPa	1015
343.15 K, 9021.7 kPa	1015.1
343.15 K, 9062.3 kPa	1015.2
343.15 K, 9096.7 kPa	1015.2
343.15 K, 9137.8 kPa	1015.1
343.15 K, 9179.2 kPa	1015.3
343.15 K, 9602.2 kPa	1015.6
343.15 K, 9638.9 kPa	1015.4
343.15 K, 9676.1 kPa	1015.7
343.15 K, 9713.7 kPa	1015.6
343.15 K, 9822.7 kPa	1015.8
343.15 K, 9861.5 kPa	1015.8
343.15 K, 9900.4 kPa	1015.9
343.15 K, 9939.7 kPa	1015.8
343.15 K, 9973.1 kPa	1015.9
343.15 K, 10013 kPa	1016
343.15 K, 10053 kPa	1015.8
343.15 K, 10095 kPa	1015.9
343.15 K, 10129 kPa	1015.9
343.15 K, 10171 kPa	1016
343.15 K, 10545 kPa	1016.2
343.15 K, 10590 kPa	1016.2
343.15 K, 10635 kPa	1016.3
343.15 K, 10674 kPa	1016.5
343.15 K, 10720 kPa	1016.3
343.15 K, 10767 kPa	1016.4
343.15 K, 10943 kPa	1016.5
343.15 K, 10980 kPa	1016.7
343.15 K, 11011 kPa	1016.6
343.15 K, 11049 kPa	1016.6
343.15 K, 11087 kPa	1016.7
343.15 K, 11125 kPa	1016.7
343.15 K, 11163 kPa	1016.7
343.15 K, 11196 kPa	1016.8
343.15 K, 11235 kPa	1016.8
343.15 K, 11314 kPa	1016.8
343.15 K, 11354 kPa	1016.8
343.15 K, 11388 kPa	1017
343.15 K, 11428 kPa	1016.8
343.15 K, 11468 kPa	1017
343.15 K, 11510 kPa	1017
343.15 K, 11544 kPa	1017
343.15 K, 11586 kPa	1017
343.15 K, 11628 kPa	1017.2
343.15 K, 11670 kPa	1017.1
343.15 K, 11714 kPa	1017.1
343.15 K, 11749 kPa	1017.1
343.15 K, 11792 kPa	1017.1
343.15 K, 11837 kPa	1017.3
343.15 K, 12365 kPa	1017.5
343.15 K, 12414 kPa	1017.6
343.15 K, 12458 kPa	1017.7
343.15 K, 12498 kPa	1017.7
343.15 K, 12547 kPa	1017.7
343.15 K, 12597 kPa	1017.8
343.15 K, 12647 kPa	1017.8
343.15 K, 12689 kPa	1017.9
343.15 K, 12739 kPa	1017.8
343.15 K, 12791 kPa	1018
343.15 K, 12843 kPa	1017.9
343.15 K, 12895 kPa	1018
343.15 K, 12939 kPa	1018
343.15 K, 12991 kPa	1018.1
343.15 K, 13044 kPa	1018
343.15 K, 13098 kPa	1018.2
343.15 K, 13151 kPa	1018.2
343.15 K, 13198 kPa	1018.2
343.15 K, 13252 kPa	1018.1
343.15 K, 13307 kPa	1018.2
343.15 K, 13364 kPa	1018.2
343.15 K, 13420 kPa	1018.4
343.15 K, 13468 kPa	1018.5
343.15 K, 13526 kPa	1018.4
343.15 K, 13584 kPa	1018.5
343.15 K, 13644 kPa	1018.5
343.15 K, 13698 kPa	1018.7
343.15 K, 13772 kPa	1018.6
343.15 K, 13822 kPa	1018.7
343.15 K, 13864 kPa	1018.6
343.15 K, 13901 kPa	1018.7
343.15 K, 13931 kPa	1018.8
343.15 K, 13968 kPa	1018.7
343.15 K, 14005 kPa	1018.7
343.15 K, 14043 kPa	1018.9
343.15 K, 14079 kPa	1018.8
343.15 K, 14110 kPa	1018.9
343.15 K, 14147 kPa	1018.9
